Structures can show the parent of a compound that is named as a salt.
How the values were obtained:
secreted Muc5ac mucin = assay: Mucolytic activity on secreted Muc5ac mucin of open porcine trachea sections (western blot); settings: for breaking down the mucus (secreted Muc5ac western blot) / native Muc5ac levels on epithelial luminal surfaces (immunoblot): 2 mM; for breaking down the mucus (secreted Muc5ac western blot): 5 minutes at 37° C., then 7% NaCl inhaled solution 5 mins, FIG. 19; for native Muc5ac levels on epithelial luminal surfaces (immunoblot): HCO3-Ringer with PGE2 (1 uM), 10 minutes at 37° C., FIG. 18
Description: FIG. 18 provides the mucolytic activity of compounds on secreted Muc5ac mucin. Epithelial luminal surface of open porcine trachea sections (˜2 cm^2) were covered with HCO3-Ringer solution ([…]) containing PGE2 (1 uM), and alcian blue (0.02%), with or without compounds at a 2 mM final concentration, and incubated for 10 minutes at 37° C. Equal volumes of each collected sample were separated on vertical electrophoresis, and then transfer to an immobilon-P membrane for western blot analysis. […] Densitometric signal of the untreated sample, as control, was normalized to 100% (% arbitrary units).
Epithelial luminal surface of open porcine trachea sections (˜2 cm^2) were covered with […] of HCO3-Ringer solution containing PGE2 (1 uM), in the presence or absence of compounds at a 2 mM final concentration, and incubated for 5 minutes at 37° C. Afterwards, […] of sterile 7% NaCl inhaled solution was added and incubated for another 5 mins at 37° C. Equal volumes of each collected sample were separated on vertical electrophoresis, and then transferred to an immobilon-P membrane for western blot analysis. […] Densitometric signal of the non-treated sample, as control, was normalized to 100% (% arbitrary units).

[1] = tested on: Muc5ac mucin from porcine airway mucus; assay: Mucolytic effect on Muc5ac mucin from porcine airway mucus (western blot, densitometry); assay type: biochemical; settings: 2 mM, 30 mins at 37° C.; compound preincubated in HCO3-Ringer, HCO3-Ringer/acetic acid or acetate buffer pH 4.5
Description: (§1) (Upper panel) Identification of Muc5ac mucin (black arrow) by western blot, from airway mucus sample collected in HCO3-Ringer and treated with or without 2 mM of compound 646 for 30 mins at 37° C. Lane CTRL, untreated sample as control. Lane Bic, sample treated with compound preincubated in HCO3-Ringer; lane Bic/Ac, sample treated with compound preincubated with 1:1 HCO3-Ringer/Acetic acid 0.1N; lane Ac, sample treated with compound preincubated in acetate buffer 1M, pH 4.5. Lower panel, densitometric analysis of the protein bands identified with the Muc5ac mucin antibody. Densitometric signal of the sample control (CTRL) was normalized as 100% (% arbitrary units).
as §1, with “647” for “646”, “4.5, as described under Methods.” for “4.5.”, “units). Control is pH 8, Bic 7.4, Bic/AC 6.9 AND AC 6.2” for “units).”
as §1, with “655” for “646”
as §1, with “compounds 656” for “compound 646”

[2] = tested on: respiratory secreted mucus; assay: Mucolytic activity on respiratory secreted mucus of open porcine trachea sections (alcian blue); settings: 2 mM, HCO3-Ringer with PGE2 (1 uM) and alcian blue (0.02%), 10 minutes at 37° C., untreated showed clusters of secreted mucus
Description: FIG. 16 provides the mucolytic activity of compounds 646 and 647 on respiratory secreted mucus. Small sections of open porcine trachea (˜2 cm^2) were covered with HCO3-Ringer solution ([…]) containing PGE2 (1 uM) and alcian blue (0.02%), with or without compounds at a 2 mM final concentration, and then incubated for 10 minutes at 37° C.
FIG. 17 provides the mucolytic activity of compounds 655 and 656 on respiratory secreted mucus. Small sections of open porcine trachea (˜2 cm^2) were covered with HCO3-Ringer solution ([…]) containing PGE2 (1 uM) and alcian blue (0.02%), with or without compounds at a 2 mM final concentration, and then incubated for 10 minutes at 37° C.

porcine airway = assay: Ex vivo porcine airway models (summary statement)
From the text: Abnormal mucus accumulation in airways has deleterious, and fatal consequence in patients suffering from respiratory obstructive diseases, such as cystic fibrosis (CF), COPD and asthma. Therefore, there is a need for therapies aimed at decreasing mucus accumulation to facilitate airway mucus clearance.

[3] = cited from earlier work

Row | Molecule | native Muc5ac levels on epithelial luminal surfaces (immunoblot) (secreted Muc5ac mucin) | influence of acidic and basic conditions on mucolytic activity on porcine Muc5ac mucin [1] | accumulation of viscous mucus and mucociliary clearance (porcine airway) | other results
1 | [2H]C(CN)SSC([2H])CN (stereo not drawn) [Compound 647, 2,2′-disulfanediylbis(ethan-2-d-1-amine) dihydrochloride] | decreased native Muc5ac levels | enhanced under acidic conditions | prevented accumulation of viscous mucus and improves mucociliary clearance | breaking down the mucus (secreted Muc5ac western blot) (secreted Muc5ac mucin): consistently works well in breaking down the mucus; appearance of secreted mucus on trachea sections ([2]; dihydrochloride): dispersed clusters of secreted mucus
2 | Cl.Cl.[2H]C([2H])(CN)SSC([2H])([2H])CN [Compound 655, 2,2′-disulfanediylbis(ethan-2,2-d2-1-aminium) chloride] | decreased native Muc5ac levels | enhanced under acidic conditions | prevented accumulation of viscous mucus and improves mucociliary clearance | breaking down the mucus (secreted Muc5ac western blot) (secreted Muc5ac mucin): consistently works well in breaking down the mucus; mucolytic activity in comparison (secreted Muc5ac mucin; comparison between deuterated cystamine compounds): better mucolytic activity than Compound 647; appearance of secreted mucus on trachea sections [2]: dispersed secreted mucus
3 | Cl.[2H]C([2H])(S)CN [Compound 656, 2-mercaptoethan-2,2-d2-1-aminium chloride] | decreased native Muc5ac levels | enhanced under acidic conditions | prevented accumulation of viscous mucus and improves mucociliary clearance | appearance of secreted mucus on trachea sections [2]: dispersed secreted mucus
4 | CC(C)(C)c1cc(C(C)(C)C)c(NC(=O)c2c[nH]c3ccccc3c2=O)cc1O [Ivacaftor, reference compound] | – | – | – | improvement of lung function ([3]; taken by mouth, CF with ivacaftor-responsive mutations): about 10%
5 | CC(=O)N[C@@H](CS)C(=O)O [NAC, N-acetylcysteine, reference compound] | – | – | – | efficacy with respect to improvement of lung function or reduction in pulmonary exacerbations ([3]; inhaled, CF and COPD): do not support the efficacy
6 | NCCSSCCN [cystamine, reference compound] | – | – | prevented accumulation of viscous mucus and improves mucociliary clearance | –
7 | rhDNase: recombinant human DNase, an enzyme that breaks down extracellular DNA in mucus (protein, UniProt P24855 23-282, looked up) Deoxyribonuclease-1: LKIAAFNIQTFGETKMSNATLVSYIVQILSRYDIALVQEVRDSHLTAVGKLLDNLNQDAPDTYHYVVSEPLGRNSYKERYLFVYRPDQVSAVDSYYYDDGCEPCGNDTFNREPAIVRFFSRFTEVREFAIVPLHAAPGDAVAEIDALYDVYLDVQEKWGLEDVMLMGDFNAGCSYVRPSQWSSIRLWTSPTFQWLIPDSADTTATPTHCAYDRIVVAGMLLRGAVVPDSALPFNFQAAYGLSDQLAQAISDHYPVEVMLK | – | – | – | clinical benefit ([3]; inhaled, adult CF subjects): substantial clinical benefits; efficacy ([3]; obstructive diseases other than CF): ineffective

Source: patent publication US12576051B2, “Methods and composition for treating respiratory obstructive diseases” (The Regents of the University of California, priority 2019, dated 2026)
